The target of this experiment is T1, FLT3 (Homo sapiens, UniProt P36888).
T1 construct: FLT3(DKIN); made in house
T1 sequence (P36888 610-943 limits assumed): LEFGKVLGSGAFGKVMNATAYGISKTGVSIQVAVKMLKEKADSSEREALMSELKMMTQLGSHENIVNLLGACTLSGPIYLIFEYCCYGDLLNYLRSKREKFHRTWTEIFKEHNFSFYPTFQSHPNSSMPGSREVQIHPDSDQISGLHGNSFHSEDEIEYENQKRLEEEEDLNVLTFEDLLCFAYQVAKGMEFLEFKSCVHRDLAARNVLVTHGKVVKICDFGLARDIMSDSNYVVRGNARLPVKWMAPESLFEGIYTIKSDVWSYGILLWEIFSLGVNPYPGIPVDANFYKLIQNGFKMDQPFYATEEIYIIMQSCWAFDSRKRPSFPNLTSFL
Nature of the experiment: Binding constant (Kd) measurement, phage-displayed kinase competition binding assay. As to conditions: FLT3(DKIN) construct. The text has this: Binding Constant (Kd) Measurements for Small-Molecule-Kinase Interactions
The term “ND” represents non-determined values.

Experimental findings from patent US20050267182A1, “Urea derivatives as FLT-3 modulators” (Ambit Biosciences Corporation, priority 2003, published 2005) are described below.

Each structure is given as a SMILES string.

The term Kd denotes the equilibrium constant for the complex coming apart. Low values mean higher affinity, high ones lower affinity.

In turn, `CC(=O)NS(=O)(=O)c1ccc(NC(=O)Nc2cc(C(C)(C)C)on2)cc1` [Compound V4] came in with a Kd of over 10 µM. In the case of `COc1ccc(NC(=O)Nc2cc(C(C)(C)C)nn2-c2ccc(C)cc2)cc1` [Compound H15], the “Binding Assay: FLT3(DKIN)” value is “+ + + +”. Still for that read-out and setting: as for `CC(C)(C)c1cc(NC(=O)Nc2ccc(C(=O)NCCO)cc2)no1` [Compound N87], the entry is “+ + +”; as for `O=C(Nc1cccc(Cl)c1)Nc1cc(C(F)(F)F)cc(Cl)n1` [Compound Z74], “+ + +”; as for `Cc1c(NC(=O)Nc2cc(C(C)(C)C)on2)c(=O)n(-c2ccccc2)n1C` [Compound Z45], “+ +”.

For the molecule `CC(C)(C)c1cc(NC(=O)Nc2ccc(C(=O)NCc3ccc4c(c3)OCO4)cc2)no1` [Compound N97], the “Binding Assay: FLT3(DKIN)” value is recorded as “+ + +”. The same measure, in the same setting: as for `CC(C)(C)c1cc(NC(=O)Nc2ccc(Cl)c(C(F)(F)F)c2)no1` [Compound A1, 1-(5-tert-butylisoxazol-3-yl)-3-(4-chloro-3-(trifluoromethyl)phenyl)urea], the entry is “+ + +”; as for `CC(C)(C)c1cc(NC(=O)Nc2ccc(C(=O)O)cc2)no1` [Compound C2], “+ +”. On the same count and under the same terms, as for `CC(C)(C)c1cc(NC(=O)Nc2ccc(NS(=O)(=O)c3ccccc3)cc2)no1` [Compound V1], the entry is “+ +”; as for `COc1ccc(N(C)C(=O)Nc2cc(C(C)(C)C)on2)cc1` [Compound J10], “+ + +”.

As to `CC(C)(C)c1cc(NC(=O)Nc2ccc(S(=O)(=O)Nc3ncccn3)cc2)no1` [Compound V3], the Kd was over 10 µM. `Cc1cc(NC(=O)Nc2ccc(OCc3ccccc3)cc2)n(-c2ccccc2)n1` [Compound H4]: the “Binding Assay: FLT3(DKIN)” value is on record as “+ + +”. For the molecule `Cc1ccc(S(=O)(=O)Nc2ccc(NC(=O)Nc3cc(C(C)(C)C)on3)cc2)cc1` [Compound V2], the “Binding Assay: FLT3(DKIN)” value is on record as “+ +”. As to `O=C(Nc1ccc(OCc2ccccc2)cc1)Nc1cc(C2CC2)nn1-c1ccccc1` [Compound H8], the “Binding Assay: FLT3(DKIN)” value was “+ + +”. The same measure, in the same setting: to `Cc1ccc(NC(=O)Nc2cc(C(F)(F)F)cc(Cl)n2)cc1` [Compound W1] belongs “+ + + +”; to `CCOC(=O)NN(C(=O)Nc1cc(C(C)(C)C)on1)c1ccc(OC)cc1` [Compound J13], “+ + +”; to `CC(C)(C)c1cc(NC(=O)Nc2ccc(OCCN3CCOCC3)c3ccccc23)no1` [Compound K1], “+ + +”. The same measure, in the same setting: to `CC(C)(C)c1cc(NC(=O)Nc2ccc(NC(=O)Cc3ccc(OCc4ccccc4)cc3)cc2)no1` [Compound N98] belongs “+ + +”; to `COc1ccc(N2CCCN(c3cc(C(C)(C)C)no3)C2=O)cc1` [Compound E5], “+ +”.

Take `Cc1ccc(CNc2ccc(NC(=O)Nc3cc(C(C)(C)C)on3)cc2)cc1` [Compound O9]: the “Binding Assay: FLT3(DKIN)” value is “+ + + +”. With `CC(C)(C)c1cc(NC(=O)Nc2ccc(Cl)cc2)no1` [Compound A27], the “Binding Assay: FLT3(DKIN)” value was “+ + +”. Take `Cn1nc(C2CC2)cc1NC(=O)Nc1ccc(OCc2ccccc2)cc1` [Compound H7]: the “Binding Assay: FLT3(DKIN)” value is given as “+ +”. Take `O=C(Nc1ccc(Br)cc1)Nc1cc(C(F)(F)F)cc(Cl)n1` [Compound Z72]: the “Binding Assay: FLT3(DKIN)” value is reported as “+ + +”.

As for `COc1ccc(NC(=O)Nc2cc(C(C)(C)C)on2)cc1` [Compound A29], the “Binding Assay: FLT3(DKIN)” value is “+ + + +”. For the molecule `Cc1ccc(-n2nc(C(C)(C)C)cc2NC(=O)Nc2cc(C(C)(C)C)on2)cc1` [Compound H11], the “Binding Assay: FLT3(DKIN)” value is recorded as “+ + + +”. Still for that read-out and setting: as for `CC(C)(C)c1cc(NC(=O)Nc2ccc(C(=O)NCc3ccccc3)cc2)no1` [Compound N89], the entry is “+ + +”; as for `C/C=C/C(=O)Nc1ccc(NC(=O)Nc2cc(C(C)(C)C)on2)cc1` [Compound N93], “+ + +”; as for `CC(C)(C)c1cc(NC(=O)Nc2ccc(NC(=O)c3c(F)cccc3C(F)(F)F)cc2)no1` [Compound N95], “+ + +”. Take `CSc1ccc(NC(=O)Nc2cc(C(C)(C)C)no2)cc1` [Compound A39]: the “Binding Assay: FLT3(DKIN)” value was “+ + +”. For the molecule `CC(C)(C)c1cc(NC(=O)Nc2ccc(C(N)=O)cc2)no1` [Compound N86], the “Binding Assay: FLT3(DKIN)” value is recorded as “+ + + +”. The same measure, in the same setting: to `CC(C)(C)c1cc(NC(=O)Nc2ccc(CC(=O)O)cc2)no1` [Compound C3] belongs “+ +”; to `CC(Oc1ccc(NC(=O)Nc2cc(C(C)(C)C)on2)cc1)c1ccccc1` (stereo not shown) [Compound G17], “+ + + +”.

Consider `CC(C)(C)c1cc(NC(=O)Nc2ccccc2)no1` [Compound A34], for which the “Binding Assay: FLT3(DKIN)” value is reported as “+ + +”. Still for that read-out and setting: as for `CC(C)c1ccc(NC(=O)Nc2cc(C(C)(C)C)on2)cc1` [Compound A25], the entry is “+ +”; as for `CC(C)(C)c1cc(NC(=O)Nc2ccc(OC(F)(F)F)cc2)on1` [Compound A13], “+ +”. Take `Cc1ccc(-n2nc(C(C)(C)C)cc2NC(=O)Nc2ccc(C(C)C)cc2)cc1` [Compound D1, 1-(3-tert-butyl-1-p-tolyl-1H-pyrazol-5-yl)-3-(4-isopropylphenyl)urea]: the “Binding Assay: FLT3(DKIN)” value is on record as “+ +”.

Turning to `CSc1ccc(NC(=O)Nc2cc(C(C)(C)C)on2)cc1` [Compound A37], the “Binding Assay: FLT3(DKIN)” value is “+ + + +”.

In the case of `Cn1nc(C(C)(C)C)cc1NC(=O)Nc1ccc(F)cc1` [Compound Z19], the “Binding Assay: FLT3(DKIN)” value is recorded as “+ + +”. The same measure, in the same setting: to `CC(C)(C)c1cc(NC(=O)Nc2ccc(-c3nc(-c4ccc(C(F)(F)F)cc4)no3)cc2)no1` [Compound P8] belongs “+ + +”. `CCN(CC)CCNC(=O)c1ccc(NC(=O)Nc2cc(C(C)(C)C)on2)cc1` [Compound N102] returned a dissociation constant (Kd) of over 10 µM.

Consider `CC(C)(C)c1cc(NC(=O)Nc2ccc3cc4ccccc4cc3c2)no1` [Compound A18], for which the “Binding Assay: FLT3(DKIN)” value is “+ + +”. On the same count and under the same terms, as for `CC(C)(C)c1cc(NC(=O)Nc2cccc(Cl)c2)no1` [Compound A48], the entry is “+ + +”.

For `CC(C)(C)c1cc(NC(=O)Nc2ccc(OC(F)F)cc2)no1` [Compound A12], the “Binding Assay: FLT3(DKIN)” value is recorded as “+ +”. With `CC(C)(C)c1cc(NC(=O)Nc2ccccc2)no1` [Compound A2], the “Binding Assay: FLT3(DKIN)” value was “+ + + +”.

Consider `CC(C)(C)c1cc(NC(=O)Nc2ccc(NC(=O)C3CCCCC3)cc2)no1` [Compound N91], for which the “Binding Assay: FLT3(DKIN)” value is “+ + + +”.

For the molecule `CN1CN(c2ccc(OCc3ccccc3)cc2)C(=O)N(c2cc(C(C)(C)C)on2)C1` [Compound E4], the “Binding Assay: FLT3(DKIN)” value is “+ + +”. The same measure, in the same setting: as for `CC(C)(C)c1cc(NC(=O)Nc2ccc(Oc3ccccc3)cc2)no1` [Compound A24], the entry is “+ + + +”. On the same count and under the same terms, to `O=C(Nc1ccc(Cl)cc1)Nc1cc(C2CC2)nn1-c1ccccc1` [Compound D2] belongs “+ + + +”. For `Cc1ccc(-n2nc(C(C)(C)C)cc2NC(=O)Nc2ccc(Cl)cc2)cc1` [Compound H14], the “Binding Assay: FLT3(DKIN)” value is “+ + + +”. `C[S+]([O-])c1ccc(NC(=O)Nc2cc(C(C)(C)C)on2)cc1` (stereo not shown) [Compound A46]: the “Binding Assay: FLT3(DKIN)” value was “+ + +”. The same measure, in the same setting: to `CC(C)c1ccc(NC(=O)Nc2cc(C(C)(C)C)no2)cc1` [Compound A11] belongs “+ +”; to `CC(C)(C)c1cc(NC(=O)Nc2ccc(Cl)cc2)on1` [Compound A32], “+ + +”. For the molecule `CC(C)(C)c1cc(NC(=O)Nc2ccc(-c3ccccc3)cc2)no1` [Compound A23], the “Binding Assay: FLT3(DKIN)” value is “+ + + +”. Still for that read-out and setting: to `CC(C)(C)c1cc(NC(=O)Nc2ccc(OCc3c(Cl)cccc3Cl)cc2)no1` [Compound G19] belongs “+ + + +”. Regarding `COc1ccc(N(C)C(=O)N(C)c2cc(C(C)(C)C)no2)cc1` [Compound J8], the equilibrium dissociation constant (Kd) is over 10 µM. With `CCCCc1ccc(NC(=O)Nc2cc(C(C)(C)C)nn2C)cc1` [Compound D12], the “Binding Assay: FLT3(DKIN)” value is “+ + +”. The same measure, in the same setting: as for `CC(C)(C)c1cc(NC(=O)NN2CCCCC2)no1` [Compound Z57], the entry is “+ + +”; as for `Cc1ccc(-n2nc(C(C)(C)C)cc2NC(=O)Nc2ccc(O)cc2)cc1` [Compound H12], “+ + +”.

In the case of `COc1ccc(N(N)C(=O)Nc2cc(C(C)(C)C)on2)cc1` [Compound J14], the “Binding Assay: FLT3(DKIN)” value was “+ + +”.

Turning to `CC(C)(C)c1cc(NC(=O)Nc2cc(C(C)(C)C)on2)on1` [Compound A54], the “Binding Assay: FLT3(DKIN)” value is given as “+ + +”. Consider `CC(C)(C)c1cc(NC(=S)Nc2ccc(N3CCOCC3)cc2)no1` [Compound F1, 1-(5-tert-butylisoxazol-3-yl)-3-(4-morpholinophenyl)thiourea], for which the equilibrium dissociation constant (Kd) is over 10 µM.

With `CC(C)(C)c1cc(N2CCCN(c3ccc(OCc4ccccc4)cc3)C2=O)on1` [Compound E2], the “Binding Assay: FLT3(DKIN)” value was “+ + +”. Still for that read-out and setting: to `CC(C)(C)c1cc(NC(=O)Nc2ccc(NC(=O)c3c(Cl)cccc3Cl)cc2)no1` [Compound N94] belongs “+ + + +”; to `Cn1nc(C(C)(C)C)cc1NC(=O)Nc1ccc(Cl)cc1` [Compound D11], “+ + +”. The same measure, in the same setting: as for `C[C@H](NC(=O)c1ccc(NC(=O)Nc2cc(C(C)(C)C)on2)cc1)c1ccccc1` [Compound N88], the entry is “+ + +”. Same read-out and setting: to `O=C(Nc1ccc(Cl)cc1)Nc1cc(C2CC2)nn1-c1ccccc1` [Compound D10] belongs “+ + +”; to `COc1ccc(NC(=O)Nc2cc(C(C)(C)C)no2)cc1` [Compound A30], “+ + + +”.
